{"source": "patent US20100008894A1", "about": "“Process of Screening a Molecule as a Candidate Drug for the Treatment of Bipolar Disorder” (Institute pasteur, priority 2005, published 2010)", "key": {"CysQ [1]": {"molecular_target": "T1, CysQ (Escherichia coli, UniProt P22255)", "T1 construct": "made in house; host or cells: E. coli MG1655 carrying pUM404, arabinose-induced", "T1 sequence (P22255 whole entry)": "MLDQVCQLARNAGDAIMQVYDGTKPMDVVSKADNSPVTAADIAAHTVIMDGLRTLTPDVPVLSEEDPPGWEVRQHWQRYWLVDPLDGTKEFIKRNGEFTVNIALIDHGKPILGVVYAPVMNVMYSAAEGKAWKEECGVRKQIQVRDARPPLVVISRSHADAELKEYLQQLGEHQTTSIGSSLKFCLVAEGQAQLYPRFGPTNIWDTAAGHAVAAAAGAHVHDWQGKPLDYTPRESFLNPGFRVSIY", "assay": "pAp/AMP-binding assay with recombinant CysQ", "design": "species or system E. coli", "settings": "15 μg protein, 5 μl agarose", "experimental": "(§1) 30 μl samples containing 15 μg of Orn-His or CysQ-His in pAp-agarose buffer containing 100 mM NaCl were incubated with 5 μl of prewashed pAp- or AMP-agarose by rotating for 1 hour at 4° C. in durapore spin columns (Millipore). Beads were removed by centrifugation, and 5 μl of the unbound fraction, designated flow through was measured for protein content using Bio-Rad protein assay. The fraction bound to the beads was eluted by the addition of 40 μl of hot SDS-sample buffer and incubation for 15 minutes at 65° C.\n(§2) Orn is an essential protein in E. coli involved in mRNA degradation. It has 3′ to 5′ exoribonuclease activity selectively active on short ribonucleotides. 5′adenosine monophosphate (AMP) is known to inhibit Orn (Datta & Niyogi, 1975). It was therefore important to compare binding of Orn to AMP and pAp. To this end recombinant Orn has been purified and its binding was measured to equal amounts of pAp- or AMP-agarose, both affinity substrates with identical binding capacities, CysQ was included as a positive control. Similar experiments were done with cell free extracts from strains overexpressing Orn or CysQ. […] Furthermore, significant amounts of Orn, roughly one third, but not CysQ bind to AMP-agarose. […]"}, "PARP": {"molecular_target": "T2, PARP (Homo sapiens, UniProt P09874)", "T2 construct": "purchased Trevigen", "T2 sequence (P09874 whole entry)": "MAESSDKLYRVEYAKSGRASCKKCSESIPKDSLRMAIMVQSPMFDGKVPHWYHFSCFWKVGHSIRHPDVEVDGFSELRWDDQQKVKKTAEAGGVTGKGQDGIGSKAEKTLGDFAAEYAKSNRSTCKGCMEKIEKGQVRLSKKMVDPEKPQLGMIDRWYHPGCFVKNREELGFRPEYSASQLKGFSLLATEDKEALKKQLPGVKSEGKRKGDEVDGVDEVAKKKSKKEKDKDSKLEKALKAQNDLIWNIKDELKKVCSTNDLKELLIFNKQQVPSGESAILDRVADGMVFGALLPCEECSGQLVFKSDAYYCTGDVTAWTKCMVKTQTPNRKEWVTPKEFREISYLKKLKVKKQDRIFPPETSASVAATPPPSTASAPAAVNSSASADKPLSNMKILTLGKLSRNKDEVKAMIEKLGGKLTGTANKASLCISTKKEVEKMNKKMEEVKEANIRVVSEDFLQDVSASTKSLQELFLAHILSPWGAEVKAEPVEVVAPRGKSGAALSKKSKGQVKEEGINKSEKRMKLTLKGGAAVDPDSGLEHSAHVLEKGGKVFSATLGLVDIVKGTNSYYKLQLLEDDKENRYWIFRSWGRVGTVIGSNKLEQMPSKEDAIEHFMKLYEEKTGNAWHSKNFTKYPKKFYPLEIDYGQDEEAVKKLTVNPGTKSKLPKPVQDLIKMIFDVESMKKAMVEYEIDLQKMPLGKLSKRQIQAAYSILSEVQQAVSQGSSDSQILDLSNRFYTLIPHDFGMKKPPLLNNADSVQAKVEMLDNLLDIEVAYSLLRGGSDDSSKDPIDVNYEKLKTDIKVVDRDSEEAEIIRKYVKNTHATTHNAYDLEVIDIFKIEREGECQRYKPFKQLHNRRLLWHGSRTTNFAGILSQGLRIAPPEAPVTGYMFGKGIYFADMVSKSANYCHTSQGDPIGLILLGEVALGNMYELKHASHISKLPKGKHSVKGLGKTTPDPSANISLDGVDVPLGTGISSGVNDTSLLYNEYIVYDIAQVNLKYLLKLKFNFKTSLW", "assay": "Colorimetric PARP assay from Trevigen", "type": "biochemical", "settings": "1 μM pAp, in vitro", "source_text": "The Inventors plan to verify this effect using an independent method, as they are not certain the effect that can be observed with the kit they used for this experiment (Colorimetric PARP assay from Trevigen) is independent of the nature of the inhibitor, as it seems that the phenomenon of self-inhibition of PARP due to auto modification has an important impact on the result. They plan therefore to measure PARP activity in-vitro in the presence or absence of pAp according to J. C. Ame using ^32P-NAD."}, "Sfn [2]": {"molecular_target": "T3, Sfn (Homo sapiens, UniProt Q9Y3B8)", "T3 construct": "His tag; made in house", "T3 sequence (Q9Y3B8 26-237)": "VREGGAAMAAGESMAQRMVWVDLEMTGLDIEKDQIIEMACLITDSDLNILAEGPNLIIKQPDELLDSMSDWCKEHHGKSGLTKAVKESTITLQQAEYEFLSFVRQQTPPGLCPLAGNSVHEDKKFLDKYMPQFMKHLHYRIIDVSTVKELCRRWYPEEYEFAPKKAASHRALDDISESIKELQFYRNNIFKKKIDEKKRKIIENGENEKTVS", "assay": "Sfn-catalyzed degradation of oligo DNA", "type": "biochemical", "settings": "50 μM pAp; DNA oligo 5mer", "experimental": "FIG. 10: Sensitivity of Sfn-catalyzed degradation of oligo DNA to pAp. Shown is the quantification of the distribution of reaction products that were separated on 22% PAA gels. Reactions included 3 μg Sfn and 3 μM of DNA oligo 5mer (5′Cy5-CCCCC3′). Reactions were started by the addition of enzyme. 50 μM pAp was present where indicated. Closed circle: 5mer, open circle: 4mer, closed triangle: 3mer, open triangle: 2mer. Monomers could not be included into this calculation due to their inability to enter the gel."}, "Orn [3]": {"molecular_target": "T4, Orn (Escherichia coli, UniProt P0A784)", "T4 construct": "made in house; host or cells: E. coli MG1655 carrying pUM408, arabinose-induced", "T4 sequence (P0A784 whole entry)": "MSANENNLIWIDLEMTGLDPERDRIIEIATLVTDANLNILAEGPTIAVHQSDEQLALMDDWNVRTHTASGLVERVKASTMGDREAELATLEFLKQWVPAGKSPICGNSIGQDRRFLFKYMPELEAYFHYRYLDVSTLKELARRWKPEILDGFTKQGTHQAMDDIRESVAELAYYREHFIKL", "assay": "pAp/AMP-binding assay with recombinant Orn", "design": "species or system E. coli", "settings": "15 μg protein, 5 μl agarose", "experimental": "as §1, §2"}, "Sfn [4]": {"molecular_target": "T3, Sfn", "assay": "Sfn-catalyzed degradation of oligo RNA", "type": "biochemical", "experimental": "FIG. 9: Sensitivity of Sfn-catalyzed degradation of oligo RNA to pAp. Shown is the quantification of the distribution of reaction products that were separated on 22% PAA gels. Reactions included 0.5 μg Sfn and 3 μM of RNA oligo 5mer (5′Cy5-CCCCC3′). Reactions were started by the addition of enzyme. 20 μM or 50 μM pAp was present where indicated. Closed circle: 5mer, open circle: 4mer, closed triangle: 3mer, open triangle: 2mer, square: 1mer.\nThe term nanoRNA has been introduced to describe these extremely short RNA oligos. The Inventors have purified His-tagged Sfn in order to evaluate its sensitivity to pAp in-vitro. Inhibition of Sfn-catalyzed degradation of nanoRNA was tested at two concentrations of the inhibitor, 20 and 50 μM."}, "Orn [5]": {"molecular_target": "T4, Orn", "assay": "Orn activity assay (degradation of RNA-oligo 5mer)", "type": "biochemical, E. coli", "settings": "10 μM inhibitor; 3 μM 5′Cy5-CCCCC3′ RNA", "experimental": "Custome made RNA-oligo 5mers (5′Cy5-CCCCC3′), obtained from Proligo, were used as substrate for in vitro activity assays. 30 μl reactions containing 50 mM HEPES pH 7.5, 5 mM MnCl2, 3 μM substrate RNA and 0.1 μg oligoribonuclease were incubated at 37° C., and reactions were initiated by adding substrate. Inhibitors were added as indicated in the text. At intervals, 5 μl reaction aliquots were taken and stopped by adding an equal volume of sample buffer (95% formamide, 20 mM EDTA, 0.1% bromphenol blue) and frozen at −20° C. For analysis of the reaction products, samples were heated at 80° C. for 3 minutes and 2.5 μl was applied to PAGE on a 22% SDS-PAA gel containing 2×TBE and run in 2×TBE. Fluorescent RNA oligos were visualized using a Molecular Dynamics STORM 860 in 650-nm long-pass filter mode.\nGiven the strong affinity of Orn for pAp, it was investigated whether pAp affects Orn activity. […] Those small RNA-oligos are called here nanoRNAs, in order to distinguish them from microRNAs, which have become a subject of extensive studies in the last several years. RNA-oligo 5-mers (5′-CCCCC-3′) labeled at their 5′-phosphate end with the sulfoindocyanine succinimidyl ester cyanine 5 (Cy5) were therefore used as substrate for in vitro assays with purified recombinant Orn. […]"}, "NM23-H2": {"molecular_target": "NM23-H2 (Homo sapiens, UniProt P22392)", "sequence (P22392 whole entry)": "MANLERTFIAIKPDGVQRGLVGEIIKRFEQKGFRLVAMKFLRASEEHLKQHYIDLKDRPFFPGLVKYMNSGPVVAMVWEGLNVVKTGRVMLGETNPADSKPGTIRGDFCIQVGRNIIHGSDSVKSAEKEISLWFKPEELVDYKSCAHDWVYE", "settings": "cited from earlier work"}, "CysQ [6]": {"molecular_target": "T1, CysQ", "type": "biochemical, E. coli"}}, "data": [{"smiles": "Nc1ncnc2c1ncn2[C@@H]1O[C@H](COP(=O)(O)O)[C@@H](OP(=O)(O)O)[C@H]1O", "note": "[pAp, 3′-phosphoadenosine 5′-phosphate]", "values": [{"measurement": "binding of CysQ to nucleotide-agarose", "setting": "CysQ [1]", "result": "almost quantitatively"}, {"measurement": "PARP activity", "setting": "PARP", "result": 60, "unit": "%"}, {"measurement": "sensitivity of Sfn-catalyzed degradation of DNA oligos", "setting": "Sfn [2]", "result": "highly sensitive"}, {"measurement": "binding of Orn to nucleotide-agarose", "setting": "Orn [3]", "result": "almost quantitatively"}, {"measurement": "inhibition of Sfn-catalyzed degradation of nanoRNA", "setting": "Sfn [4]; 20 μM pAp", "result": "Significant inhibition"}, {"measurement": "inhibition of Sfn-catalyzed degradation of nanoRNA", "setting": "Sfn [4]; 50 μM pAp", "result": "increasing inhibition"}, {"measurement": "inhibition of degradation of nanoRNA by Orn", "setting": "Orn [5]", "result": "significantly more pronounced"}]}, {"smiles": "Nc1ncnc2c1ncn2[C@@H]1O[C@H](COP(=O)(O)O)[C@@H](O)[C@H]1O", "note": "[AMP, 5′adenosine monophosphate]", "values": [{"measurement": "binding of CysQ to nucleotide-agarose", "setting": "CysQ [1]", "result": "not"}, {"measurement": "binding of Orn to nucleotide-agarose", "setting": "Orn [3]", "result": "roughly one third"}, {"measurement": "inhibition of degradation of nanoRNA by Orn", "setting": "Orn [5]", "result": "inhibiting"}]}, {"smiles": "Nc1ncnc2c1ncn2[C@@H]1O[C@H](COP(=O)(O)OP(=O)(O)OP(=O)(O)O)[C@@H](O)[C@H]1O", "note": "[ATP]", "values": [{"measurement": "inhibition of the cleavage reaction", "setting": "NM23-H2; 0.5 mM", "result": 50, "unit": "%"}]}, {"smiles": "Nc1ncnc2c1ncn2[C@@H]1O[C@H](COP(=O)(O)OP(=O)(O)O)[C@@H](O)[C@H]1O", "note": "[ADP]", "values": [{"measurement": "inhibition of the cleavage reaction (yes/no)", "setting": "NM23-H2", "result": "not"}]}, {"smiles": "[Cl-].[Na+]", "note": "[sodium, NaCl]", "values": [{"measurement": "inhibition of CysQ by sodium", "setting": "CysQ [6]; physiological concentrations, 200 mM NaCl", "result": "not inhibitory"}]}, {"smiles": "[Ca+2].[Cl-].[Cl-]", "note": "[CaCl2]", "values": [{"measurement": "inhibition of CysQ", "setting": "CysQ [6]; 2 mM CaCl2, in the presence of 200 mM NaCl", "result": "complete inhibition"}]}]}
